Test results taken from patent US11338025B2, “Vaccine therapy for treatment of endometrial and ovarian cancer” (The Henry M. Jackson Foundation for the Advancement of …, priority 2016, dated 2022).
Blank lines part the entries; values can stand above or below the substance they belong to. Ends that are not written are not given here.

Assays:
[1] = system: tumor-associated lymphocyte (TAL); conditions: previous studies (Peoples et al. 1998); cited from earlier work
[2] = Local reactions (LR) 48-72 hours after booster; conditions: 500 mcg peptide + 250 mcg GM-CSF
Source text: Therefore, to assess the use of the attenuated E39′ peptide as a booster, E39-vaccinated patients described in Example 1 were randomized to receive either E39 or E39′ as a booster to determine the effect on long-term E39-specific immunity. Patients in the VG received six intradermal E39 injections as described in Example 1 as a primary vaccination schedule (PVS). At six months (B1) and at twelve months (B2) after completion of the PVS, patients received either 500 mcg of E39′ and 250 mcg GM-CSF or 500 mcg E39 and 250 mcg of GM-CSF as a booster.
Local reactions (LR) were recorded 48-72 hours after each booster. Immune response was determined by measurement of E39 specific CTL levels using a Dextramer reagents in accordance with the manufacturer's instructions (Immudex Limited, Copenhagen, Denmark) as previously described (e.g., Tario et al. Cytometry B Clin. Cytom. 2015; 88B:6-20; Baba J. Transl Med. 2010; 8:84), at RO (baseline pre-vaccination), RC1 (1 month after completion of PVS), RC6 (6 months after completion of PVS and before booster), RC7 (1 month after booster) and RC12 (6 months after booster and 12 months after completion of PVS).

[3] = Local and systemic toxicity (NCI CTCAE v4.03) of E39+GM-CSF vaccination; type: in vivo, human
Method: Standard local and systemic toxicities were collected and graded per the National Cancer Institute Common Terminology Criteria for Adverse Events, v4.03 toxicity scale. For the vaccine series (one vaccine/month for six months), patients were monitored closely for one hour after vaccine inoculation with questioning, serial exams and vital signs every 15 minutes to observe for a hypersensitivity reaction. Systemic toxicity and inoculation site local reactions were also determined after 48-72 hours.

Substance: E41: FRα-derived immunogenic peptide (FRα 245-253) of previous studies (LLSLALMLL; UniProt P15328 245-253, looked up, fragment)
- effect on TAL proliferation and anti-tumor function [1]: capable of enhancing tumor-associated lymphocyte (TAL) proliferation and anti-tumor function

- average LR ([2]; B1 booster (6 months after PVS)): 79.7±14.0 mm
- average LR ([2]; B2 booster (12 months after PVS)): 74.1±11.5 mm
Substance: EIWTFSTKV [E39′, EIWTFSTKV]

Substance: EIWTHSYKV [E39, EIWTHSYKV]
- tolerability of the vaccine ([3]; E39+GM-CSF, disease-free endometrial and ovarian cancer patients): well tolerated
- Local and systemic toxicities ([3]; in vivo): mild
- patients experiencing grade 3 toxicity ([3]; in vivo): 1 patient
